Data: ChEMBL document CHEMBL1201862, “PubChem BioAssay data set” (2004)
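Test compounds were applied to cells in 96-well plates for 48 hours at 5 doses. The concentration for 50% growth inhibition is given as GI50.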 Active and inactive are the calls of the source. Cut-off read from the data, not from the text of the source: active = GI50 up to about 1.1 µM and inactive = higher. Non-standard residues stand in square brackets, D forms with d. Residues, ends and D or L forms follow the SMILES beside them. *: point of attachment. Ac5c = NC1(C(=O)O)CCCC1; Cbz = O=C(OCc1ccccc1)*; Boc = CC(C)(C)OC(=O)*; tBu = CC(C)(C)*

How the values were obtained:
Assay in all cases: NCI anticancer screen, dose series, 48 h
RXF 393 = system: RXF 393
HL-60 = system: HL-60
SF-268 = system: SF-268
TK-10 = system: TK-10
DMS-273 = system: DMS-273
EKVX = system: EKVX
COLO 205 = system: COLO 205
M19-MEL = system: M19-MEL
RPMI-8226 = system: RPMI-8226
ACHN = system: ACHN
SNB-75 = system: SNB-75
SW-620 = system: SW-620
SR = system: SR
IGROV-1 = system: IGROV-1
HT-29 = system: HT-29
NCI-H226 = system: NCI-H226
MDA-MB-435 = system: MDA-MB-435
T47D = system: T47D
NCI/ADR-RES = system: NCI/ADR-RES
MDA-MB-231 = system: MDA-MB-231

SMILES | GI50 (RXF 393) | GI50 (HL-60) | GI50 (SF-268) | GI50 (TK-10) | GI50 (DMS-273) | GI50 (EKVX) | GI50 (COLO 205) | GI50 (M19-MEL) | GI50 (RPMI-8226) | GI50 (ACHN) | GI50 (SNB-75) | GI50 (SW-620) | GI50 (SR) | GI50 (IGROV-1) | GI50 (HT-29) | GI50 (NCI-H226) | GI50 (MDA-MB-435) | GI50 (T47D) | GI50 (NCI/ADR-RES) | GI50 (MDA-MB-231)
OC1CCC[C@@H]1Sc1ccccc1 (some centres undefined) | > 100 µM (inactive) | > 100 µM (inactive) | > 100 µM (inactive) | > 100 µM (inactive) | > 100 µM (inactive) | > 100 µM (inactive) | > 100 µM (inactive) | > 100 µM (inactive) | > 100 µM (inactive) | > 100 µM (inactive) | > 100 µM (inactive) | > 100 µM (inactive) | > 100 µM (inactive) | – | – | – | – | – | – | –
Cc1nc2ccccc2c(=O)n1/N=C(\N=N\c1ccccc1Cl)c1ccccc1Cl | 17.9 µM (inactive) | 27.9 µM (inactive) | 35.1 µM (inactive) | 48 µM (inactive) | 44.8 µM (inactive) | 28.8 µM (inactive) | > 100 µM (inactive) | > 100 µM (inactive) | 30.1 µM (inactive) | 50.5 µM (inactive) | – | > 100 µM (inactive) | – | 42.1 µM (inactive) | 53.6 µM (inactive) | – | – | – | – | –
O=C(O)NC(c1ccccc1)C(NC(=O)c1ccccc1)c1ccccc1 (centres undefined) | > 100 µM (inactive) | – | > 100 µM (inactive) | > 100 µM (inactive) | – | > 100 µM (inactive) | > 100 µM (inactive) | > 100 µM (inactive) | > 100 µM (inactive) | > 100 µM (inactive) | > 100 µM (inactive) | > 100 µM (inactive) | > 100 µM (inactive) | > 100 µM (inactive) | > 100 µM (inactive) | – | – | – | – | –
COc1cc(/C=C2/C(=O)N(C(=O)c3ccc(Cl)cc3)N=C2C)cc(OC)c1OC | > 100 µM (inactive) | > 100 µM (inactive) | > 100 µM (inactive) | > 100 µM (inactive) | – | > 100 µM (inactive) | > 100 µM (inactive) | > 100 µM (inactive) | > 100 µM (inactive) | > 100 µM (inactive) | – | > 100 µM (inactive) | – | > 100 µM (inactive) | > 100 µM (inactive) | – | – | – | – | –
CCOC(=O)C(C(=O)OCC)P(=S)(S)c1ccccc1 (centres undefined) | > 100 µM (inactive) | > 100 µM (inactive) | > 100 µM (inactive) | > 100 µM (inactive) | > 100 µM (inactive) | > 100 µM (inactive) | > 100 µM (inactive) | > 100 µM (inactive) | – | > 100 µM (inactive) | – | > 100 µM (inactive) | > 100 µM (inactive) | > 100 µM (inactive) | > 100 µM (inactive) | > 100 µM (inactive) | – | – | – | –
COc1ccc(/C(Cl)=C(\C=O)c2ccccc2)cc1OC | 14.4 µM (inactive) | 6.78 µM (inactive) | 33.1 µM (inactive) | 21.4 µM (inactive) | 29.8 µM (inactive) | 3.6 µM (inactive) | 10.1 µM (inactive) | 13.6 µM (inactive) | – | 23.3 µM (inactive) | 11.6 µM (inactive) | 12.9 µM (inactive) | 5.68 µM (inactive) | > 100 µM (inactive) | 28.1 µM (inactive) | 21 µM (inactive) | – | – | – | –
N#C/C(=C/c1ccc[nH]1)P(=O)(O)O | > 100 µM (inactive) | > 100 µM (inactive) | > 100 µM (inactive) | > 100 µM (inactive) | > 100 µM (inactive) | > 100 µM (inactive) | > 100 µM (inactive) | > 100 µM (inactive) | > 100 µM (inactive) | > 100 µM (inactive) | 80.4 µM (inactive) | > 100 µM (inactive) | > 100 µM (inactive) | – | > 100 µM (inactive) | > 100 µM (inactive) | – | – | – | –
CC(C)(O)[C@H](CCO)O[Si](c1ccccc1)(c1ccccc1)C(C)(C)C | – | 4.99 µM (inactive) | 10.5 µM (inactive) | 13.2 µM (inactive) | 10.1 µM (inactive) | 14.2 µM (inactive) | 14.4 µM (inactive) | 14.9 µM (inactive) | 10.4 µM (inactive) | 5.94 µM (inactive) | 10.9 µM (inactive) | 12.8 µM (inactive) | 4.93 µM (inactive) | 12.2 µM (inactive) | 11.1 µM (inactive) | – | – | – | – | –
COc1cc(/C=C(\C)c2ccc3c(c2)OCO3)cc(OC)c1OC | 34.1 µM (inactive) | 15.7 µM (inactive) | 26.9 µM (inactive) | 47 µM (inactive) | 26 µM (inactive) | 10.4 µM (inactive) | 18.5 µM (inactive) | 31.4 µM (inactive) | – | 10.3 µM (inactive) | 5 µM (inactive) | 19.1 µM (inactive) | 19.3 µM (inactive) | 25.1 µM (inactive) | 25.7 µM (inactive) | 33.7 µM (inactive) | – | – | – | –
O=c1c2ccccc2nc(-c2ccccc2Cl)n1NCC1(O)OCC(O)C(O)C1O (centres undefined) | > 100 µM (inactive) | > 100 µM (inactive) | > 100 µM (inactive) | > 100 µM (inactive) | > 100 µM (inactive) | > 100 µM (inactive) | > 100 µM (inactive) | > 100 µM (inactive) | > 100 µM (inactive) | > 100 µM (inactive) | 62.2 µM (inactive) | > 100 µM (inactive) | > 100 µM (inactive) | – | > 100 µM (inactive) | – | – | – | – | –
CCCCC(C)/C=C/C(O)=C1\C(=O)O/C(=C\C(=O)O)C1=O (centres undefined) | – | > 100 µM (inactive) | – | > 100 µM (inactive) | > 100 µM (inactive) | > 100 µM (inactive) | > 100 µM (inactive) | – | > 100 µM (inactive) | > 100 µM (inactive) | > 100 µM (inactive) | > 100 µM (inactive) | > 100 µM (inactive) | > 100 µM (inactive) | > 100 µM (inactive) | > 100 µM (inactive) | – | – | – | –
COc1ccc2[nH]c3c(C)c4cc[n+](COC(=O)c5ccccc5)cc4c(C)c3c2c1 | – | 0.628 µM (active) | 0.286 µM (active) | 0.55 µM (active) | – | – | – | 0.381 µM (active) | 0.144 µM (active) | 0.101 µM (active) | 0.703 µM (active) | 0.0668 µM (active) | 0.0313 µM (active) | 0.158 µM (active) | 0.117 µM (active) | – | – | – | – | –
CC1=NNC(=O)C2CCC(=O)N12 (centres undefined) | > 100 µM (inactive) | > 100 µM (inactive) | > 100 µM (inactive) | > 100 µM (inactive) | > 100 µM (inactive) | > 100 µM (inactive) | > 100 µM (inactive) | > 100 µM (inactive) | > 100 µM (inactive) | > 100 µM (inactive) | > 100 µM (inactive) | > 100 µM (inactive) | > 100 µM (inactive) | > 100 µM (inactive) | – | > 100 µM (inactive) | – | – | – | –
COc1ccc(Nc2nc(C#N)c(N)s2)cc1 | – | 24.5 µM (inactive) | 19.9 µM (inactive) | 38.2 µM (inactive) | 26.7 µM (inactive) | – | 35.9 µM (inactive) | – | 18.8 µM (inactive) | 15.7 µM (inactive) | > 100 µM (inactive) | 46.1 µM (inactive) | – | 76.6 µM (inactive) | 46.8 µM (inactive) | > 100 µM (inactive) | – | – | – | –
COC(=O)C1(NC(=O)C(Cc2ccccc2)NC(=O)C(NC(=O)C(CCCCNC(=O)OC(C)(C)C)NC(=O)C(Cc2c[nH]c3ccccc23)NC(=O)C(Cc2ccccc2)NC(=O)OCc2ccccc2)C(C)OC(C)(C)C)CCCC1 (centres undefined) (Cbz-FWK(Boc)T(tBu)F[Ac5c]-OMe; configuration not given here) | > 100 µM (inactive) | > 100 µM (inactive) | > 100 µM (inactive) | > 100 µM (inactive) | – | > 100 µM (inactive) | > 100 µM (inactive) | – | > 100 µM (inactive) | > 100 µM (inactive) | > 100 µM (inactive) | 51.6 µM (inactive) | > 100 µM (inactive) | 88.1 µM (inactive) | > 100 µM (inactive) | > 100 µM (inactive) | > 100 µM (inactive) | 24.6 µM (inactive) | > 100 µM (inactive) | 25.9 µM (inactive)
CC1=C2C=CC(=O)C[C@@]2(C)CCC1 | > 100 µM (inactive) | > 100 µM (inactive) | > 100 µM (inactive) | > 100 µM (inactive) | > 100 µM (inactive) | > 100 µM (inactive) | > 100 µM (inactive) | > 100 µM (inactive) | > 100 µM (inactive) | > 100 µM (inactive) | 69.2 µM (inactive) | > 100 µM (inactive) | – | > 100 µM (inactive) | > 100 µM (inactive) | – | – | – | – | –
O=C(O)COc1ccc(C(=O)/C(SS/C(C(=O)c2ccc(OCC(=O)O)c(Cl)c2Cl)=C2\C=C(c3ccccc3Cl)SS2)=C2/C=C(c3ccccc3Cl)SS2)c(Cl)c1Cl | – | 2.59 µM (inactive) | 22 µM (inactive) | 33.3 µM (inactive) | 25.6 µM (inactive) | 40.6 µM (inactive) | 17.6 µM (inactive) | 28.5 µM (inactive) | 18.3 µM (inactive) | 23.5 µM (inactive) | 35.1 µM (inactive) | 25.5 µM (inactive) | 2.23 µM (inactive) | 21.3 µM (inactive) | 21.7 µM (inactive) | 17.7 µM (inactive) | – | – | – | –
COc1c(C(=O)/C(=N/Nc2cccc(Cl)c2)C(C)=O)c(O)c(OC)c2occc12 | 34.6 µM (inactive) | > 100 µM (inactive) | 87.3 µM (inactive) | > 100 µM (inactive) | – | 78.7 µM (inactive) | > 100 µM (inactive) | – | 80.9 µM (inactive) | 70 µM (inactive) | 13 µM (inactive) | 76.4 µM (inactive) | > 100 µM (inactive) | > 100 µM (inactive) | 95.1 µM (inactive) | > 100 µM (inactive) | > 100 µM (inactive) | 50.8 µM (inactive) | > 100 µM (inactive) | 73.6 µM (inactive)
